{"source": "patent US6696303B2", "about": "“Identifying substances using cells that express p75NTR” (Trustees of Boston University, priority 1996, dated 2004)", "key": {"[1]": {"system": "Bax", "test": "Bax level in melanocytes by Western blot with anti-Bax antibody", "type": "cell-based, human", "settings": "for increased Bax level as compared to the 40-1 peptide: 25 μM, four days; for Bax induction: 25 uM, within 4 days, vs 40-1 control fragment or irrelevant protein", "experimental": "To investigate the mechanism of β-amyloid-mediated melanocyte death, Bax levels in melanocytes treated with 25 uM of 1-40 or 25-35 β-amyloid peptides was examined. Within 4 days of treatment, Bax was induced 3 fold in melanocytes stimulated either with the β-amyloid 1-40 or 25-35 fragments as compared to melanocytes treated with the 40-1 control fragment or an irrelevant HPLC purified protein of similar size.\nMelanocytes were maintained as above. Four days after addition of 25 μM of β-amyloid fragments 1-40, 40-1 or 25-35; or 25 μM of HPLC-purified bovine corticotropin releasing factor (CRF) (Bachem Calif.) (MW 4.7 kD) as an additional negative control, cells were extracted in RIPA buffer (50 mM Tris-HCl, 0.15 M NaCl, 0.5% sodium deoxycholate, 1% TRITON®X-100) in the presence of 1 μ/ml aprotinin and 75 μg/ml phenylmethylsulfonyl fluoride (PMSF), sonicated for 1-3 seconds and centrifuged. 40 μg of protein per lane were separated on 12% SDS/PAGE and blotted onto nitrocellulose paper (overnight, 25V). To verify equal loading a duplicate 13% SDS/PAGE was performed and stained with Coomasie Blue R250 stain. Blots were incubated with anti-Bax antibody (1:1000 dilution) (primary antibody), followed by horseradish peroxidase-conjugated goat anti-rabbit IgG (secondary antibody) (1:500 dilution) (Bio-Rad Laboratories, Hercules, Calif.). Bound antibodies were detected using enhanced chemiluminescence kit (Amersham Corp.). Autoradiograms were scanned into a Macintosh II is computer using the Of to TM program (Light source Computer Images, Inc.). Scan analysis was performed with manual definition of bands using Scan Analysis TM 68000 program (Biosoft, Cambridge, UK)."}, "[2]": {"system": "p75^NTR", "test": "UV irradiated melanocytes treated with anti p75NTR antisense oligonucleotides", "type": "cell-based", "experimental": "Melanocytes were UV irradiated with 25 mJ/cm^2 and then supplemented either with 10 μM anti p75^NTR anti sense phosphothioate oligonucleotides ([…] SEQ ID NO.: 5) directed against the 3′ end of the p75^NTR coding region, or the same concentration of sense oligonucleotides as a negative control.\nImmunohistochemical analysis confirmed that p75^NTR was not expressed in cells treated with anti-p75^NTR anti-sense oligonucleotides, but was expressed in the sense treated cells. Within 24 hours after irradiation; the following was observed the following were observed: […]"}, "[3]": {"system": "melanocytes", "test": "NGF supplementation of β-amyloid-treated melanocytes", "type": "cell-based, human", "settings": "for percent of live cells (spread): 48 hours", "experimental": "Melanocytes were maintained as above in hormone supplemented medium lacking hydrocortisone. Cells were supplemented with 25 μM of β-amyloid 1-40 in the presence of 50 ng/ml NGS or diluent.\nPhotographs of representative fields were obtained and the percent of the live cells (spread) was determined 48 hours after addition of β-amyloid and NFG or β-amyloid and diluent.\nAt least 400 cells were counted in each condition."}, "[4]": {"biological_target": "T1, p75^NTR (Homo sapiens, UniProt P08138)", "T1 construct": "expressed in transfected cells; host or cells: NIH 3T3 fibroblasts, permanently transfected (p75NTR-NIH 3T3 cells)", "T1 sequence (P08138 29-427)": "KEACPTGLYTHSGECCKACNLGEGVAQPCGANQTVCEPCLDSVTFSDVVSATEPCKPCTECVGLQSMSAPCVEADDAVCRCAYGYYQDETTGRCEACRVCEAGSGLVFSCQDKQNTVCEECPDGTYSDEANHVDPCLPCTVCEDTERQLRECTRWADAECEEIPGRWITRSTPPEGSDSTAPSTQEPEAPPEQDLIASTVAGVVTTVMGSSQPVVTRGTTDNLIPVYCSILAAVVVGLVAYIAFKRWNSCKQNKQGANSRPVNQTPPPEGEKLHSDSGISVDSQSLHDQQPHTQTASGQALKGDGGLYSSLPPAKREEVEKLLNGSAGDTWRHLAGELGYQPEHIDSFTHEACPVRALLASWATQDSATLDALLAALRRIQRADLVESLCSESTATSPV", "test": "receptor affinity for p75NTR", "type": "binding"}, "[5]": {"biological_target": "T1, p75^NTR", "test": "competition for 125I labeled β-amyloid 1-40 binding on p75NTR-NIH 3T3 cells", "settings": "NGF 100 ng/ml; 2 hours at 4° C.", "text": "After rinsing in PBS, cells were lysed in 1N NaOH and equal amounts of protein from cell lysates were subject to counting.\n[…] (SEQ ID NO: 4). Lysates from 1.5×10^5 cells were subjected to counting."}, "[6]": {"biological_target": "T1, p75^NTR", "settings": "lysine at position 34 replaced by alanine; vs NGF; cited from earlier work"}, "[7]": {"system": "p75^NTR 3T3 cells", "test": "cell yield of p75NTR 3T3 cells with β-amyloid and cyclic peptide", "type": "cell-based", "experimental": "p75^NTR 3T3 cells were maintained in serum free medium supplemented with 200 nM β-amyloid 1-40, 200 nM cyclic peptide […], (SEQ ID NO: 4) 20 nM β-amyloid 1-40 and 200 nM cyclic peptide or diluent alone."}, "[8]": {"system": "normal human melanocytes", "test": "melanocyte cell yield and morphology after β-amyloid supplementation", "type": "cell-based", "experimental": "To determine the effect of β-amyloid on normal human melanocytes, cultures were supplemented with increasing concentrations (0.025-50 uM) of HPLC-purified β-amyloid fragment corresponding to amino acids 1-40. A peptide containing the first 40 amino acids synthesized in reverse order (40-1) was used as a negative control.\nMelanocytes were maintained in serum free Medium 199 (Gibco BRL Gaithersburg, Md.) supplemented with epidermal growth factor (10 ng/ml) (Collaborative Research), insulin (10 μg/ml) (Sigma), triiodothyronine (10^−9 M) (Collaborative Research), transferrin (10 μg/ml) (Sigma), hydrocortisone (1.4×10^−6 M) (Calbiochem), cholera toxin (10^−9 M) (Calbiochem) and basic fibroblast growth factor (basic FGF) (10 ng/ml) (Collaborative Research). Two days after plating cells were supplemented with increasing concentrations of β-amyloid 1-40 or the control peptide 40-1 (0-50 μM) (Bachem Calif., Torrance, Calif.)."}, "[9]": {"biological_target": "T1, p75^NTR", "test": "cross linking of 125I β-amyloid 1-40 and immunoprecipitation with anti p75NTR antibodies", "type": "binding", "settings": "p75NTR-NIH 3T3 cells, disuccinimidyl suberate cross linking", "experimental": "p75^NTR-NIH 3T3 cells were maintain in DMEM supplemented with 10% FBS in the presence of penicillin (45 ng/ml), streptomycin (68 ng/ml), and hygromycin B (17.5 ng/ml). At 80% confluence cells were lifted from the dish with EDTA and incubated in suspension with 5 uCi ^125I labeled β-amyloid 1-40 at 4° C. for 1 hour in DMEM. After incubation, 1 mM of disuccinimidyl suberate was added for 30 minutes. Following centrifugation cells were lysed with RIPA buffer (50 mM Tris HCl, pH 8.0, 0.15 M NaCl 0.5% sodium deoxycholate 4, 5 mM MgC2, 1% TRITON®X-100, 1 mM phenylmethylsulfonylfluoride, and 1 μg/ml aprotinin), sonicated for 1-3 seconds and immunoprecipitated with anti p75^NTR antibodies (mouse monoclonal IgGl, Cedarlane Laboratories Ltd., Ontario, Canada) or mouse IgG as control for 16 hours at 4° C. in the presence of 15 ul of protein G plus protein A agarose and 1M NaCl adjusted to pH 8.0. After several washes with 20 mM Tris HCl, pH 8.0, 1M NaCl, 5mM MgCl2, 0.2% TRITON®X-100 and 1 mM PMSF, immunoprecipitates were separated over 8% PAGE and subjected to autoradiography. A band of appropriate molecular weight was present only in lysates immunoprecipitated with anti p75^NTR antibodies and not lysates immunoprecipitated with irrelevant mouse IgG."}, "[10]": {"settings": "NGF supplementation, preliminary data"}, "[11]": {"settings": "≧25 μM, compared to control cultures"}}}
{"substance": "25-35: β-amyloid peptide fragment of amino acid residues 25-35 (GSNKGAIIGLM)", "values": [{"measurement": "increased Bax level as compared to the 40-1 peptide", "setting": "[1]", "value": 160, "unit": "%"}, {"measurement": "Bax induction", "setting": "[1]", "value": 3, "unit": "fold"}]}
{"substance": "CTCCCACTCGTCATTCGAC (all phosphorothioate, sugars by position and methylation of C not given here) [anti-sense oligonucleotides, anti p75NTR anti sense phosphothioate oligonucleotides directed against the 3′ end of the p75NTR coding region]", "values": [{"measurement": "p75NTR expression (immunohistochemical analysis)", "setting": "[2]; 10 μM oligonucleotide, melanocytes UV irradiated with 25 mJ/cm^2", "value": "not expressed"}, {"measurement": "appearance of cells within 24 hours after irradiation", "setting": "[2]; diluent instead of NGF", "value": "appear as healthy as cells provided NGF lacking p75^NTR"}, {"measurement": "appearance of cells within 24 hours after irradiation", "setting": "[2]; with 50 ng/ml NGF", "value": "do not appear as healthy or numerous as cells expressing both receptors in the presence of NGF"}]}
{"substance": "NGF: Nerve growth factor, physiologic ligand for p75NTR", "values": [{"measurement": "percent of live cells (spread)", "setting": "[3]; 25 μM β-amyloid 1-40 and 50 ng/ml NGF", "value": "96±1.4", "unit": "%"}, {"measurement": "cell yields of β-amyloid-supplemented melanocytes", "setting": "[3]; NGF added, within 3-5 days", "value": "enhanced cell yields"}, {"measurement": "Bcl-2 levels", "setting": "[3]; [10]", "value": "increases Bcl-2 levels"}, {"measurement": "β-amyloid-induced Bax upregulation", "setting": "[3]; [10]", "value": "decreases the β-amyloid-induced Bax upregulation"}, {"measurement": "higher receptor affinity than β-amyloid", "setting": "[4]", "value": "2-3 fold"}, {"measurement": "appearance of cells within 24 hours after irradiation", "setting": "[2]; with 50 ng/ml NGF", "value": "appear healthy"}, {"measurement": "maximum inhibition of 125I labeled β-amyloid binding", "setting": "[5]", "value": 38, "unit": "%"}]}
{"substance": "mutant NGF: NGF in which lysine (K) at position 34 is replaced by alanine (A)", "values": [{"measurement": "lower affinity of binding to p75NTR", "setting": "[6]", "value": 50, "unit": "%"}]}
{"substance": "β-amyloid 1-40: HPLC-purified β-amyloid fragment corresponding to amino acids 1-40", "values": [{"measurement": "cell yield compared to all other cultures", "setting": "[7]; 200 nM, serum free medium, up to 120 hours", "value": "prominent decrease of cell yield"}, {"measurement": "reduction of cell yields", "setting": "[7]; β-amyloid 200 nM", "value": "~60", "unit": "%"}, {"measurement": "effect on cell yield", "setting": "[8]; 0-50 μM, three to five days after addition", "value": "dose dependent decrease of cell yield"}, {"measurement": "decrease in cell yield", "setting": "[8]; 25-30 uM, compared to cell yield before β-amyloid addition (100%)", "value": "59%±17%"}, {"measurement": "dendrite outgrowth", "setting": "[8]; low concentrations (≦1 μM)", "value": "extensive outgrowth of dendrites"}, {"measurement": "decrease of melanocyte yield", "setting": "[8]; within 3-5 days, total of four experiments", "value": "> 50", "unit": "%"}, {"measurement": "proportion of apoptotic cells", "setting": "[8]; [11]", "value": "significantly increases the proportion of apoptotic cells"}, {"measurement": "percent of live cells (spread)", "setting": "[3]; 25 μM β-amyloid 1-40 and diluent", "value": "77±8.5", "unit": "%"}, {"measurement": "binding to p75NTR (autoradiogram of immunoprecipitates)", "setting": "[9]", "value": "protein band of 75-80 kD in size only in lysates immunoprecipitated with anti p75^NTR antibodies"}, {"measurement": "increased Bax level as compared to the 40-1 peptide", "setting": "[1]", "value": 270, "unit": "%"}, {"measurement": "Bax induction", "setting": "[1]", "value": 3, "unit": "fold"}, {"measurement": "upregulation of Bax protein expression", "setting": "[1]; [11]", "value": "approximately three fold"}]}
